From publication PMC10167667, “Structural and functional characterization of a multi-domain GH92 α-1,2-mannosidase from Neobacillus novalis” (Acta Crystallographica. Section D, Structural Biology, 2023)

Target: T1, NnGH92 (Neobacillus novalis, UniProt A0A7R9KAR8)
T1 construct: full-length five-domain enzyme without native signal peptide (Ser34-Asp1411); Alcalase signal peptide then N-terminal HHHHHHPR tag kept; secreted from Bacillus subtilis
Assay: X-ray crystal structure, […] Å
Type: binding
Conditions: co-crystallised with 5 mM mannoimidazole and 8 mM CaCl2, pH 6.6; catalytic active site (-1 subsite, Ca2+); second site in N-terminal CBM32 (chain A)

T1 sequence (A0A7R9KAR8 entry or part of it): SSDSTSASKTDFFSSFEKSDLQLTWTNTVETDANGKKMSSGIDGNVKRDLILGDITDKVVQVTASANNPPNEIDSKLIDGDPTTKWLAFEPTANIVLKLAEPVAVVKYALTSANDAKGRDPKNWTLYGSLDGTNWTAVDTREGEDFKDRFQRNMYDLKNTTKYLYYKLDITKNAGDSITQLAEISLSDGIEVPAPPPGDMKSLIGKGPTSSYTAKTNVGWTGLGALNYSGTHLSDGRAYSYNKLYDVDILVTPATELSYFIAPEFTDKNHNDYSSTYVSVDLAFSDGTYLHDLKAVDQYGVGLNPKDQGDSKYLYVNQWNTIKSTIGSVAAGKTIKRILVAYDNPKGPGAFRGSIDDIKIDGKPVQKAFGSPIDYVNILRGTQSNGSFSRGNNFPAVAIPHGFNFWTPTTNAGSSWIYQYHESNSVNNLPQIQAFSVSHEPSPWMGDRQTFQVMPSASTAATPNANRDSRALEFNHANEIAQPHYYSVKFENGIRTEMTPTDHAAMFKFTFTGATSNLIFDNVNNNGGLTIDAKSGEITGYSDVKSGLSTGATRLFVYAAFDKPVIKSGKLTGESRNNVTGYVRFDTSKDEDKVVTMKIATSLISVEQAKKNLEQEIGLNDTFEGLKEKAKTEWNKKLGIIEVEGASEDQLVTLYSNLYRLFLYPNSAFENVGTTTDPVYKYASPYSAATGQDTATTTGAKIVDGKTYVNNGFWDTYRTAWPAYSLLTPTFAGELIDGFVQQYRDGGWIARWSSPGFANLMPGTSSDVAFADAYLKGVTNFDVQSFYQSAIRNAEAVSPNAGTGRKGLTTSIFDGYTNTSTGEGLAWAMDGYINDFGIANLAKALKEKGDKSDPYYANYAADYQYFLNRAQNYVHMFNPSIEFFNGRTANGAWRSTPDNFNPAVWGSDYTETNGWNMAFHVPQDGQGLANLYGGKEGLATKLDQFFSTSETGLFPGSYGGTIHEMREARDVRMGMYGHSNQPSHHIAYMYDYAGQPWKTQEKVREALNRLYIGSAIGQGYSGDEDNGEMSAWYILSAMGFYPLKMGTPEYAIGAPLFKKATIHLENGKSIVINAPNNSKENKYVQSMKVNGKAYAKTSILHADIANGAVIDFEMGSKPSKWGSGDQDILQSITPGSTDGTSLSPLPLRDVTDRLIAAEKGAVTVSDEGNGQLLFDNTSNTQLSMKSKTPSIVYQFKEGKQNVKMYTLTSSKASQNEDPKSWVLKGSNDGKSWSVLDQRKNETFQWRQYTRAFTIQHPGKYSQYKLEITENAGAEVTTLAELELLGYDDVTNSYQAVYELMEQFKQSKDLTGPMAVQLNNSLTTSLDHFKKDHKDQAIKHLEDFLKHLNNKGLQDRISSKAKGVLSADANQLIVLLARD

Structure (SMILES): OC[C@@H]1[C@@H](O)[C@H](O)[C@H](O)c2nccn21 [mannoimidazole]
- X-ray crystal structure, 2.3 Å: solved in complex with the mannosidase inhibitor mannoimidazole (ManI; PDB entry 7nsn
